# Read-outs that look alike come from different tables or passages of the source.
# Key:
# [1] = target: T1, human EGFR (Homo sapiens, UniProt P00533); assay: HTScan EGF Receptor Kinase Assay; format: biochemical; conditions: FIG. 1
# T1 construct: human EGFR (His672-Ala1210); purchased Cell Signaling Technologies; host or cells: baculovirus expression system
# Protocol: The ability of compounds to inhibit receptor kinase (EGFR) activity was assayed using HTScan™ EGF Receptor Kinase Assay Kits (Cell Signaling Technologies, Danvers, Mass.). […] The protein was purified by one-step affinity chromatography using glutathione-agarose.
# Immediately transfer enzyme from −80° C. to ice. Allowed enzyme to thaw on ice. […] Returned immediately to ice. […] Incubated reaction plate at room temperature for 30 minutes. […] Added 100 μl/well primary antibody. Incubated at room temperature for 60 minutes. […] Added 100 μl/well diluted antibody. Incubated at room temperature for 30 minutes. […] Incubated at room temperature for 5 minutes.
# [2] = test system: Caki-1; assay: Cell proliferation assay (Table D); format: cell-based; conditions: Homo sapiens, Renal carcinoma, read-out: IC50 grading Caki-1
# [3] = test system: various cancer cell lines; assay: Cell proliferation assay, various cancer cell lines (general statements); format: cell-based; conditions: Table D
# Protocol: Cancer cell lines were plated at 5,000 to 10,000 per well in 96-well flatted bottomed plates with various concentration of compounds. The cells were incubated with compounds for 72 hours in the presence of 0.5% of fetal bovine serum. Growth inhibition was accessed by adenosine triphosphate (ATP) content assay using Perkin Elmer ATPlite kit. ATPlite is an ATP monitoring system based on firefly luciferase. Briefly, 25 μl of mammalian cell lysis solution was added to 50 μl of phenol red-free culture medium per well to lyse the cells and stabilize the ATP. 25 μl of substrate solution was then added to the well and subsequently the luminescence was measured.
# [4] = test system: HDAC in MDA-MB-468 breast cancer cell line; assay: Ac-H4 / Ac-H3 accumulation in MDA-MB-468 breast cancer cell line (FIG. 2); format: cell-based; conditions: MDA-MB-468, Ac-H4 and Ac-H3 accumulation
# [5] = test system: EGFR in MDA-MB-468 breast cancer cell line; assay: EGFR phosphorylation in MDA-MB-468 breast cancer cell line (FIG. 2); format: cell-based; conditions: MDA-MB-468, FIG. 2
# [6] = test system: HCT-116 (colon) and SKBr3 (breast) cancer cells; assay: Induction of apoptosis, Caspase 3&7 activity (FIG. 4); format: cell-based; conditions: 24 hours
# [7] = Pharmacokinetic study of compound 12 formulation in mice; format: in vivo; conditions: hydrochloride salt in 30% CAPTISOL
# Protocol: Drug Preparation and Administration. […] Compound was administered via an intravenous (iv) infusion.
# Plasma samples were prepared by protein precipitation. An internal standard was added into plasma samples. […] The supernatant was then injected onto LC/MS/MS.
# Tissues were homogenized in 0.8 ml water. An internal standard was added into the tissue homogenates.
# [8] = Pharmacokinetic study of compound 12 formulation in rats; format: in vivo; conditions: 20 and 60 mg/kg iv, hydrochloride salt in 30% CAPTISOL, over thirty hours, FIG. 14
# [9] = test system: HPAC pancreatic cancer cells; assay: HPAC pancreatic cancer xenograft; format: in vivo, mice; conditions: 120 mg/kg in 30% CAPTISOL (iv/ip) daily vs 50 mg/kg erlotinib (po) or vehicle, FIG. 12A
# Protocol: 1-10×10^6 human cancer cells were implanted subcutaneously to the athymic (nu/nu) mice. When the tumors reached about 100 mm^3 in volume, the mice were treated with the compound by tail vein infusion. Routinely 5 groups (8-12 mice per group) are needed for a typical efficacy study, including one negative control, one positive control, and three testing groups for 3 dose levels of the same compound. Usually a 7-7-5 (on-off-on) regimen was used for one typical study. The tumor size was measured with an electronic caliper and body weight measured with a scale twice weekly. The tumors were removed from euthanized mice at the end of the study. One half of each tumor was frozen in dry ice and stored at −80° C. for PK or Western blot analysis. The other half was fixed with formalin. The fixed tissues were processed, embedded in paraffin and sectioned for immunohistochemistry staining.
# [10] = male, CD-1, mouse, in vivo, iv, 9 days
# [11] = male, CD-1, mouse, in vivo, ip, 7 days
# [12] = both, Sprague Dawley, rat, in vivo, iv, 8 days
# [13] = Pharmacokinetic study of compound 12 formulation in mice; format: in vivo; conditions: IP Dose 20 mg/kg, hydrochloride salt in 30% CAPTISOL
# [14] = Captisol formulation of compound 12: solubility, pH, dilution, stability
# T1 sequence (P00533 672-1210): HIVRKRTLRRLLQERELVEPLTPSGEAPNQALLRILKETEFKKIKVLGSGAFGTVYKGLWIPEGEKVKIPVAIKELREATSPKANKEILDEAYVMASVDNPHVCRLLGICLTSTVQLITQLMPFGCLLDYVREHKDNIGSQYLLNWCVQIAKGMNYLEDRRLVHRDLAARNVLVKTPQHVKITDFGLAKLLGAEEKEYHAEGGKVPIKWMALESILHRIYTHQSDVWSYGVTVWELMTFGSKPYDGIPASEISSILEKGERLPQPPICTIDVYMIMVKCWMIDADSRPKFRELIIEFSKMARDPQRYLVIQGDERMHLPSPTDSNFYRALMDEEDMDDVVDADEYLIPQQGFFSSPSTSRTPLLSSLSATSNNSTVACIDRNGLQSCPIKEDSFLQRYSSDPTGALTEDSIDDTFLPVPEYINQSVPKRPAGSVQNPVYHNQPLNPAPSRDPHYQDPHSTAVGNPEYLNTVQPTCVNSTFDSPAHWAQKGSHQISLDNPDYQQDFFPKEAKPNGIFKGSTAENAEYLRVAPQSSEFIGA
structure (smiles),measurement,setting,value
"C#Cc1cccc(Nc2ncnc3cc(OC)c(OCCCCCCC(=O)NO)cc23)c1 [Compound 12, 7-(4-(3-ethynylphenylamino)-7-methoxyquinazolin-6-yloxy)-N-hydroxyheptanamide]",activity in EFGR enzyme assay compared with erlotinib,[1],more active
same,IC50,[2],≤ 50 nM
same,activity in various cancer cell lines compared with Erlotinib and SAHA,[3],more active than Erlotinib and SAHA
same,histone H3/H4 acetylation accumulation compared with SAHA,[4],improvement
same,inhibition of EGFR phosphorylation compared with Erlotinib,[5],improvement
same,"cell apoptosis measured by increased Caspase 3&7 activity, times more",[6],4-11 times
same,dose proportionality of concentration,"[7]; 20 and 60 mg/kg, iv and ip",dose proportional when administered intravenously but not intraperitoneally
same,T ½,"[7]; IP Dose 20 mg/kg, Lung",2.2 h
same,AUC,"[7]; IV Dose 20 mg/kg, Colon",5529 ng·h/mL
same,Cmax,"[7]; IV Dose 20 mg/kg, Colon",8.5 µM
same,T ½,"[7]; IV Dose 20 mg/kg, Colon",1.7 h
same,AUC,"[7]; IV Dose 20 mg/kg, Lung",1571 ng·h/mL
same,Cmax,"[7]; IV Dose 20 mg/kg, Lung",15.2 µM
same,T ½,"[7]; IV Dose 20 mg/kg, Lung",3.9 h
same,AUC,"[7]; IV Dose 20 mg/kg, Plasma",715 ng·h/mL
same,Cmax,"[7]; IV Dose 20 mg/kg, Plasma",27.7 µM
same,T ½,"[7]; IV Dose 20 mg/kg, Plasma",0.2 h
same,half-life in tissue compared with plasma,[7],greater than that in plasma
same,plasma concentration versus dose,[8],proportional to the dose
same,attenuation of tumor growth,[9],greater attenuation of tumor growth than either erlotinib (po) or vehicle
same,dose not resulting in a significant change in body weight,[10],up to 200 mg/kg
same,dose not resulting in a significant change in body weight,[11],up to 100 mg/kg
same,dose not resulting in a significant change in body weight,[12],up to 200 mg/kg
same,AUC,[13]; Lung,4433 ng·h/mL
same,Cmax,[13]; Lung,7.8 µM
same,AUC,[13]; Plasma,3751 ng·h/mL
same,Cmax,[13]; Plasma,8.5 µM
same,T ½,[13]; Plasma,0.26 h
same,stability of solution,[14]; 25 mg/ml in 30% Captisol with tartaric acid,stable at room temperature
same,chemically stable and in solution without precipitation after dilution,"[14]; formulations from A (i), diluted with D5W 10-, 20-, and 50-fold",> 48 h
same,remained in solution without precipitation after dilution,"[14]; formulations from A (ii) citric acid, A (iii) hydrochloric acid, A (iiii) sodium salt, diluted with D5W 10-fold",> 12 h
same,chemical stability of lyophilisate,"[14]; lyophilisate from A (i) (tartaric acid, 25 mg/ml), −20° C., room temperature, and 40° C.",at least 2 weeks
same,storage of lyophilisate without decomposition,"[14]; lyophilisate from A (i), 4° C.",greater than 2 weeks
same,stability of lyophilisate,"[14]; lyophilisate from A (iii) (hydrochloric acid), −20° C.",at least two weeks

# — patent publication US8604044B2, “Quinazoline based EGFR inhibitors containing a zinc binding moiety” (Curis, Inc., priority 2006, dated 2013)
